Source: US20080139574A1, “Novel quinoline derivatives” (CADILA HEALTHCARE LIMITED, priority 2006, published 2008)
Converted amounts (≈) assume the structure as drawn.

How the values were obtained:
ATCC 700603 = assay: In vitro MIC, broth micro dilution; type: cell-based; conditions: ATCC700603; Staphylococcus pyogens ATCC 700603
Method: (§1) The in vitro (MIC) antibacterial activity of the compounds against susceptible Gram-positive, multidrug resistant Gram-positive and Gram-negative was tested as growth inhibition with the use of broth micro dilution method according to the guidelines of Clinical and Laboratory Standards Institute (formerly National Committee for Clinical Laboratory Standards). Compounds were dissolved in DMSO and water was added to get stock solution in 80% DMSO. The working solution was prepared by diluting the stock solution 1:10 times in 4-8% DMSO in water or medium, and the dissolved compounds were evaluated in the concentrations of 0.125, 0.25, 0.5, 1, 2, 4, 8, and 16 μg/mL and the concentration was finally expressed in μM.

[1] = system: Staphylococcus aureus ATCC 9144; assay: In vitro MIC, broth micro dilution; type: cell-based; conditions: ATCC9144
Method: as §1

[2] = system: Staphylococcus aureus ATCC 29213; assay: In vitro MIC, broth micro dilution; type: cell-based; conditions: ATCC29213
Method: as §1

[3] = system: Bacillus cereus ATCC 11778; assay: In vitro MIC, broth micro dilution; type: cell-based; conditions: ATCC11778
Method: as §1

[4] = system: Enterococcus faecium ATCC 700221; assay: In vitro MIC, broth micro dilution; type: cell-based; conditions: ATCC700221
Method: as §1

[5] = system: Enterococcus faecalis ATCC 14506; assay: In vitro MIC, broth micro dilution; type: cell-based; conditions: ATCC14506
Method: as §1

[6] = system: Staphylococcus aureus ATCC 25923; assay: In vitro MIC, broth micro dilution; type: cell-based; conditions: ATCC25923
Method: as §1

[7] = system: Enterococcus faecalis ATCC 700802; assay: In vitro MIC, broth micro dilution; type: cell-based; conditions: ATCC700802
Method: as §1

[8] = system: Staphylococcus aureus ATCC 700699; assay: In vitro MIC, broth micro dilution; type: cell-based; conditions: ATCC700699
Method: as §1

[9] = system: Pseudomonas aeruginosa ATCC 27853; assay: In vitro MIC, broth micro dilution; type: cell-based; conditions: ATCC27853
Method: as §1

[10] = system: Enterococcus faecium ATCC 51559; assay: In vitro MIC, broth micro dilution; type: cell-based; conditions: ATCC51559
Method: as §1

[11] = system: Streptococcus pneumoniae ATCC 700904; assay: In vitro MIC, broth micro dilution; type: cell-based; conditions: ATCC700904
Method: as §1

[12] = system: Bacillus pumilis ATCC 14884; assay: In vitro MIC, broth micro dilution; type: cell-based; conditions: ATCC14884
Method: as §1

[13] = system: Streptococcus pyogens ATCC 14289; assay: In vitro MIC, broth micro dilution; type: cell-based; conditions: ATCC14289
Method: as §1

[14] = system: Staphylococcus aureus ATCC 14154; assay: In vitro MIC, broth micro dilution; type: cell-based; conditions: ATCC14154
Method: as §1

[15] = system: Enterococcus faecalis ATCC 35550; assay: In vitro MIC, broth micro dilution; type: cell-based; conditions: ATCC35550
Method: as §1

[16] = system: Klebsiella pneumoniae ATCC 700571; assay: In vitro MIC, broth micro dilution; type: cell-based; conditions: ATCC700571
Method: as §1

[17] = system: Staphylococcus epidermidis ATCC 155; assay: In vitro MIC, broth micro dilution; type: cell-based; conditions: ATCC155
Method: as §1

[18] = system: Klebsiella pneumoniae ATCC 10031; assay: In vitro MIC, broth micro dilution; type: cell-based; conditions: ATCC10031
Method: as §1

in vivo = conditions: male, Sprague-Dawley, rat, po, 30 mg/kg

Row | MIC (ATCC 700603) [µM] | MIC [1] [µM] | MIC [2] [µM] | MIC [3] [µM] | MIC [4] [µM] | MIC [5] [µM] | MIC [6] [µM] | MIC [7] [µM] | MIC [8] [µM] | MIC [9] [µM] | MIC [10] [µM] | MIC [11] [µM] | MIC [12] [µM] | MIC [13] [µM] | MIC [14] [µM] | MIC [15] [µM] | MIC [16] [µM] | MIC [17] [µM] | MIC [18] [µM] | AUC (in vivo) [ng·h/mL] | Compound | other results
1 | 12.5 (≈ 6.49 µg/mL) | 1.56 (≈ 0.812 µg/mL) | 3.12 (≈ 1.62 µg/mL) | 3.12 (≈ 1.62 µg/mL) | 25 (≈ 13 µg/mL) | 12.5 (≈ 6.49 µg/mL) | 1.56 (≈ 0.812 µg/mL) | 12.5 (≈ 6.49 µg/mL) | > 50 | 3.12 (≈ 1.62 µg/mL) | > 50 | 3.12 (≈ 1.62 µg/mL) | 1.56 (≈ 0.812 µg/mL) | 1.56 (≈ 0.812 µg/mL) | 1.56 (≈ 0.812 µg/mL) | 3.12 (≈ 1.62 µg/mL) | 6.25 (≈ 3.25 µg/mL) | 0.781 (≈ 0.406 µg/mL) | ≤ 0.391 | 85800 ± 39900 | COc1ccc2c(c1)CCC(CN1CCN(c3cc4c(cc3F)c(=O)c(C(=O)O)cn4C3CC3)CC1)C2=O (centres unmarked) [Compound 1, 1-Cyclopropyl-6-fluoro-7-[4-(6-methoxy-1-oxo-1,2,3,4-tetrahydro-naphthalen-2-ylmethyl)-piperazin-1-yl]-4-oxo-1,4-dihydro-quinoline-3-carboxylic acid] | Cmax (in vivo): 10600 ± 2610 ng/mL; Tmax (in vivo): 4 h; half-life (in vivo): 9.55 ± 2.83 h
2 | 12.5 (≈ 6.75 µg/mL) | 0.781 (≈ 0.422 µg/mL) | 1.56 (≈ 0.844 µg/mL) | 1.56 (≈ 0.844 µg/mL) | 50 (≈ 27 µg/mL) | 6.25 (≈ 3.37 µg/mL) | 0.781 (≈ 0.422 µg/mL) | 6.25 (≈ 3.37 µg/mL) | 25 (≈ 13.5 µg/mL) | 0.781 (≈ 0.422 µg/mL) | 50 (≈ 27 µg/mL) | 3.12 (≈ 1.69 µg/mL) | 0.781 (≈ 0.422 µg/mL) | 0.781 (≈ 0.422 µg/mL) | 1.56 (≈ 0.844 µg/mL) | 6.25 (≈ 3.37 µg/mL) | 1.56 (≈ 0.844 µg/mL) | ≤ 0.391 | ≤ 0.391 | 7400 ± 1780 | O=C(O)c1cn(C2CC2)c2cc(N3CCN(CC4CCOc5cc(Cl)ccc5C4=O)CC3)c(F)cc2c1=O (centres unmarked) [Compound 6, 7-[4-(8-Chloro-5-oxo-2,3,4,5-tetrahydro-benzo[b]oxepin-4-ylmethyl)-piperazin-1-yl]-1-cyclopropyl-6-fluoro-4-oxo-1,4-dihydro-quinoline-3-carboxylic acid] | Cmax (in vivo): 2360 ± 1070 ng/mL; Tmax (in vivo): 1.33 ± 0.53 h; half-life (in vivo): 1.66 ± 0.73 h
3 | > 50 | 1.56 (≈ 0.499 µg/mL) | 3.12 (≈ 0.998 µg/mL) | 3.12 (≈ 0.998 µg/mL) | > 50 | 25 (≈ 7.98 µg/mL) | 3.12 (≈ 0.998 µg/mL) | 25 (≈ 7.98 µg/mL) | > 50 | 3.12 (≈ 0.998 µg/mL) | > 50 | 1.56 (≈ 0.499 µg/mL) | 6.25 (≈ 2 µg/mL) | 3.12 (≈ 0.998 µg/mL) | 3.12 (≈ 0.998 µg/mL) | 6.25 (≈ 2 µg/mL) | 6.25 (≈ 2 µg/mL) | 0.781 (≈ 0.249 µg/mL) | ≤ 0.391 | – | CCn1cc(C(=O)O)c(=O)c2cc(F)c(N3CCNCC3)cc21 [Norfloxacin, reference compound] | –
